26 compounds from ChEMBL document CHEMBL1201862, “PubChem BioAssay data set” (2004) can be followed below.

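How tested: cells in 96-well plates exposed to compound for 48 hours at five concentrations. Here, GI50 denotes the concentration required for 50% inhibition of growth.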 Activity calls are given as the source filed them. No stated cut-off is given here; in the data, active = GI50 up to about 1.1 µM and inactive = higher. A value given as a limit tells only on which side of the number the result lay.

Test systems include HOP-18; DMS-273; DMS-114; XF498; KM-20L2; LXFL 529; DLD-1; SNB-78; RXF 631.
What all share (assay): DTP human tumour cell line panel, 48 h

In the case of `COc1ccc2c3c([nH]c2c1[N+](=O)[O-])C(C)N(C)CC3` (stereo not drawn), the GI50 (usually the concentration at which growth is held to half of that of the control) was 19.4 µM (inactive) in the experiment with HOP-18; > 100 µM (inactive) in the experiment with DMS-273; > 100 µM (inactive) in the experiment on DMS-114; > 100 µM (inactive) with XF498; 62.4 µM (inactive) in the experiment on KM-20L2; 69 µM (inactive) in the experiment with LXFL 529. Moreover, the GI50 in the experiment on DLD-1 and in the experiment on SNB-78 was > 100 µM (inactive) in each case.
For the compound `CC1=CC(=O)c2c(C=O)c(O)c(O)c(C(C)C)c2C1=O`, the GI50 in the experiment on HOP-18 is 25.9 µM (inactive); with DMS-273 it was 31 µM (inactive); with DMS-114, 22.6 µM (inactive); with XF498, 20.6 µM (inactive); with KM-20L2, 29.1 µM (inactive); with LXFL 529 it was 16.5 µM (inactive). Moreover, the GI50 in the experiment with DLD-1 is 23.9 µM (inactive); with SNB-78 it was 45.9 µM (inactive).
In the case of `Cc1cc(CS(=O)(=O)/C=C/c2ccccc2[N+](=O)[O-])c(CS(=O)(=O)/C=C/c2ccccc2[N+](=O)[O-])cc1C`, the GI50 in the experiment with DMS-273 is > 100 µM (inactive); in the experiment on DMS-114 it was 45.1 µM (inactive); in the experiment with XF498, 15.5 µM (inactive); in the experiment with KM-20L2, > 100 µM (inactive); with LXFL 529, > 100 µM (inactive); in the experiment with SNB-78 it was 23 µM (inactive).
For `O=C1C2CCN(CC2)C1CN1CCOCC1` (stereo not drawn), the GI50 in the experiment with HOP-18 is 7.59 µM (inactive); in the experiment on DMS-273 it was 11.8 µM (inactive); in the experiment with XF498, 5.05 µM (inactive); in the experiment with KM-20L2, 18.2 µM (inactive); with LXFL 529 it was 2 µM (inactive); in the experiment with DLD-1, 1.65 µM (inactive). Also, the figures for the GI50 in the experiment with RXF 631 and in the experiment on SNB-78 were 16.9 µM (inactive) and 20.7 µM (inactive), respectively.
With `S=C(Nc1ccccc1)Nc1ccccc1SC(/C=C/NNC1=NN=C(c2ccccc2)C(c2ccccc2)N1)c1ccccc1` (stereo not drawn), the GI50 with DMS-273 was > 100 µM (inactive); in the experiment on DMS-114, 12.2 µM (inactive); in the experiment on XF498, > 100 µM (inactive); in the experiment with KM-20L2 it was > 100 µM (inactive); in the experiment with DLD-1 it was 79.8 µM (inactive); in the experiment with RXF 631, > 100 µM (inactive). Moreover, the GI50 in the experiment with SNB-78 is > 100 µM (inactive).
For `COc1c(O)c2c3c(cc(C)cc3c1C(C)C)OC2`, the GI50 in the experiment on HOP-18, in the experiment on DMS-273, with XF498, with KM-20L2, in the experiment with LXFL 529 and in the experiment with DLD-1 was > 100 µM (inactive) each time. Further, the GI50 with SNB-78 was > 100 µM (inactive).
Consider `COC(=O)c1ccccc1NCc1cc(O)ccc1O`, for which the GI50 was 14.5 µM (inactive) in the experiment with HOP-18; 51.5 µM (inactive) in the experiment on DMS-273; 17.1 µM (inactive) in the experiment with XF498; > 100 µM (inactive) with KM-20L2; 17.5 µM (inactive) with LXFL 529; 20.2 µM (inactive) in the experiment with DLD-1. In addition, the GI50 in the experiment with SNB-78 was 20.3 µM (inactive).
With `CCOC1=C2C(=O)OC(=O)C2C2CCCCC2=C1` (stereo not drawn), the GI50 with DMS-273, in the experiment with DMS-114, in the experiment with XF498, in the experiment with LXFL 529, with DLD-1 and in the experiment with SNB-78 was > 100 µM (inactive) each time.
With `O=C(CO)C1CC2C=CC1C2` (stereo not drawn), the GI50 in the experiment with DMS-273, with DMS-114, with XF498, in the experiment with LXFL 529, in the experiment with RXF 631 and with SNB-78 was > 100 µM (inactive) in each case.
For the compound `CC(=O)OCc1cc2c(s1)C(=O)c1sccc1C2=O`, the GI50 is 0.145 µM (active) in the experiment with HOP-18; 0.155 µM (active) in the experiment with DMS-273; 0.149 µM (active) in the experiment with DMS-114; 2.24 µM (inactive) in the experiment on KM-20L2; 0.308 µM (active) in the experiment with LXFL 529; 0.187 µM (active) in the experiment on DLD-1. In the experiment on SNB-78, the GI50 is 13.2 µM (inactive).
With `Cc1ccc(-c2nc3c(C(=O)NCCN(C)C)cccc3[nH]2)cc1`, the GI50 in the experiment on HOP-18 is 15.3 µM (inactive); in the experiment with DMS-273, 9.06 µM (inactive); in the experiment on DMS-114 it was 13.3 µM (inactive); in the experiment on DLD-1 it was 13.5 µM (inactive); in the experiment on RXF 631 it was 4.89 µM (inactive); in the experiment with SNB-78, 20.2 µM (inactive).
Consider `CC(=O)Oc1c(C)c(-c2ccccc2)c(C)c(-c2ccccc2)c1C(=S)c1ccccc1`, for which the GI50 in the experiment on HOP-18 is > 100 µM (inactive); with KM-20L2, 67.3 µM (inactive); with LXFL 529, > 100 µM (inactive); in the experiment with DLD-1, > 100 µM (inactive); with RXF 631, > 100 µM (inactive); in the experiment on SNB-78 it was > 100 µM (inactive).
With `COc1cc2c(c(OC)c1OC)-c1ccc(SC)c(=O)cc1C(CC(=O)Oc1ccc(F)cc1)C2` (stereo not drawn), the GI50 with HOP-18 is 0.53 µM (active); with DMS-273, 0.193 µM (active); with DMS-114, 0.26 µM (active); in the experiment on XF498 it was 0.318 µM (active); with KM-20L2, 0.124 µM (active); in the experiment with LXFL 529, 0.31 µM (active). Further, the GI50 was 0.288 µM (active) with DLD-1 and 0.142 µM (active) in the experiment with SNB-78.
Consider `C/C(=N\NC(=O)c1ccccc1O)c1cccc(/C(C)=N/NC(=O)c2ccccc2O)n1`, for which the GI50 was 2.66 µM (inactive) with DMS-114, 18.6 µM (inactive) in the experiment on XF498 and 2.22 µM (inactive) in the experiment on LXFL 529.
With `COc1cc2c(cc1OC)[Se]c1cc(OC)c(OC)cc1[Se]2`, the GI50 with HOP-18 is 16.6 µM (inactive); in the experiment on DMS-273, 38.1 µM (inactive); in the experiment on DMS-114 it was 5.61 µM (inactive); in the experiment with XF498, > 10 µM (inactive); with KM-20L2, > 10 µM (inactive); in the experiment on LXFL 529, > 10 µM (inactive). For the same compound, the GI50 with DLD-1 and with SNB-78 was > 10 µM (inactive) each time.
Regarding `COC(=O)[C@@]12C(=O)C=CC(=O)C1C1C(=CC2C)OC2OC3(CCCCC3)OC21` (stereo partly drawn), the GI50 in the experiment on HOP-18 is 20.2 µM (inactive); in the experiment with DMS-273 it was 19 µM (inactive); in the experiment with DMS-114 it was 15.7 µM (inactive); with KM-20L2, 20.5 µM (inactive); in the experiment with LXFL 529, 13.5 µM (inactive); with DLD-1, 18.5 µM (inactive). Further, the GI50 with SNB-78 is 20.6 µM (inactive).
Consider `CC1=C(O)C(=O)C2C(=O)C1C1Cc3ccccc3C21` (stereo not drawn), for which the GI50 with DMS-273, in the experiment on XF498, in the experiment on LXFL 529, in the experiment with DLD-1, in the experiment with RXF 631 and in the experiment with SNB-78 was > 100 µM (inactive) throughout.
With `Cc1c(C(=O)/C=C/c2ccccc2O)c(=O)n(-c2ccccc2)n1C`, the GI50 in the experiment with DMS-273 is 22.2 µM (inactive); in the experiment with DMS-114 it was 24.6 µM (inactive); in the experiment on XF498, 19.1 µM (inactive); in the experiment with KM-20L2 it was 31.6 µM (inactive); in the experiment on LXFL 529, 16.7 µM (inactive); in the experiment with DLD-1, 14.3 µM (inactive). In addition, the GI50 in the experiment with SNB-78 is 39.4 µM (inactive).
With `O=C(O)c1c(-c2cccc3ccccc23)sc(-c2cccc3ccccc23)c1C(=O)O`, the GI50 in the experiment on HOP-18 is 96.2 µM (inactive); in the experiment on DMS-273 it was > 100 µM (inactive); with DMS-114, > 100 µM (inactive); in the experiment with XF498, 18.2 µM (inactive); with KM-20L2 it was 50 µM (inactive); in the experiment on LXFL 529, > 100 µM (inactive). The GI50 with DLD-1 and with SNB-78 was > 100 µM (inactive) in each case.
`Cc1cccc(C)c1NC(=O)CCCC(=O)C(C#N)c1ccccc1` (stereo not drawn): the GI50 with DMS-273 was > 10 µM (inactive); in the experiment on XF498, > 10 µM (inactive); with KM-20L2 it was > 10 µM (inactive); with LXFL 529, > 100 µM (inactive); with DLD-1 it was > 100 µM (inactive); with RXF 631, > 100 µM (inactive). Besides, the GI50 with SNB-78 was > 100 µM (inactive).
For `O=C1CC(c2ccccc2)NCN1` (stereo not drawn), the GI50 with HOP-18, in the experiment with DMS-273, with DMS-114, in the experiment with KM-20L2, with LXFL 529 and in the experiment on DLD-1 was > 100 µM (inactive) in each case. In the experiment on SNB-78, the GI50 was > 100 µM (inactive).
`CCc1cc(CCC(=O)Nc2c(C)cccc2C)n[nH]1`: the GI50 in the experiment with HOP-18, in the experiment on DMS-273, in the experiment on XF498, in the experiment with KM-20L2, with LXFL 529 and in the experiment with DLD-1 was > 100 µM (inactive) throughout. The GI50 in the experiment with RXF 631 and with SNB-78 was > 100 µM (inactive) in each case.
Turning to `O=C1[C@H](Cl)[C@H]2c3cc4ccccc4nc3Oc3ccccc3N12`, the GI50 in the experiment with DMS-273 was 33.3 µM (inactive); with DMS-114, 20.9 µM (inactive); in the experiment on KM-20L2, 43.4 µM (inactive); in the experiment on LXFL 529 it was 34 µM (inactive); in the experiment with DLD-1, 84.9 µM (inactive).
Regarding `c1ccc2c(c1)OCCOCCOc1ccccc1OCCO2`, the GI50 in the experiment on HOP-18 is 34.2 µM (inactive); in the experiment on DMS-273, 41.2 µM (inactive); in the experiment on DMS-114 it was 84.1 µM (inactive); in the experiment on KM-20L2, 29.8 µM (inactive); in the experiment on LXFL 529, 68.5 µM (inactive); in the experiment with DLD-1, 61.9 µM (inactive). For the same compound, the GI50 in the experiment with SNB-78 was > 100 µM (inactive).
Consider `O=C(CSc1nnc[nH]1)C[P+](c1ccccc1)(c1ccccc1)c1ccccc1`, for which the GI50 in the experiment with DMS-273 is > 100 µM (inactive); with DMS-114, 97.1 µM (inactive); in the experiment with XF498, 85.1 µM (inactive); in the experiment with KM-20L2, > 100 µM (inactive); in the experiment with LXFL 529, > 100 µM (inactive); in the experiment on DLD-1 it was > 100 µM (inactive). The GI50 in the experiment on SNB-78 is > 100 µM (inactive).
As to `O=C(O)c1c2c(c(C(=O)O)c3ccccc13)-c1ccccc1-2`, the GI50 is 20.4 µM (inactive) in the experiment with HOP-18; 49.3 µM (inactive) in the experiment with DMS-273; 74.1 µM (inactive) with DMS-114; 35.5 µM (inactive) in the experiment on XF498; 42.7 µM (inactive) in the experiment with KM-20L2; 39.8 µM (inactive) with LXFL 529. The GI50 in the experiment on DLD-1 is 41.4 µM (inactive); in the experiment on SNB-78, 71.1 µM (inactive).
